Tests used:
corn = test: Test C preemergence; assay type: in vivo, Zea mays; conditions: for Plant response rating (scale of 0 to 100 where 0 is no effect and 100 is complete control): Corn, preemergence; for Corn plant response rating (0 to 100): Preemergence, visual rating after 13 to 15 d
Excerpt: (§1) Seeds of plant species selected from blackgrass (Alopecurus myosuroides), ryegrass, Italian (Italian ryegrass, Lolium multiflorum), wheat (winter wheat, Triticum aestivum), galium (catchweed bedstraw, Galium aparine), corn (Zea mays), crabgrass, large (large crabgrass, Digitaria sanguinalis), foxtail, giant, (giant foxtail, Setaria faberii), johnsongrass (Sorghum halepense), lambsquarters (Chenopodium album), morningglory (Ipomoea coccinea), nutsedge, yellow (yellow nutsedge, Cyperus esculentus), pigweed (Amaranthus retroflexus), ragweed (common ragweed, Ambrosia elatior), soybean (Glycine max), barnyardgrass (Echinochloa crus-galli), oilseed rape (Brassica napus), waterhemp (common waterhemp, Amaranthus rudis), and velvetleaf (Abutilon theophrasti) were planted into a blend of loam soil and sand and treated preemergence with test chemicals formulated in a non-phytotoxic solvent mixture which included a surfactant. At the same time, plants selected from these crop and weed species and also chickweed (common chickweed, Stellaria media), oat, wild (wild oat, Avena fatua), and kochia (Kochia scoparia), were planted in pots containing Sunshine Redi-Earth® planting medium comprising spaghnum peat moss, vermiculite, starter nutrients and dolomitic limestone and treated with postemergence applications of test chemicals formulated in the same manner. Plants ranged in height from 2 to 18 cm (1- to 4-leaf stage) for postemergence treatments. […] A dash (-) response means no test result.

oilseed rape [1] = test: Test D preemergence; assay type: in vivo, Brassica napus; conditions: for Plant response rating: Oilseed Rape: scale 0 to 100
Excerpt: (§2) Seeds of plant species selected from bluegrass (annual bluegrass, Poa annua), blackgrass (Alopecurus myosuroides), canarygrass (Phalaris minor), chickweed (common chickweed, Stellaria media), galium (catchweed bedstraw, Galium aparine), bromegrass, down (downy bromegrass, Bromus tectorum), Russian thistle (Salsola kali), field poppy (Papaver rhoeas), field violet (Viola arvensis), foxtail, green (green foxtail, Setaria viridis), deadnettle (henbit deadnettle, Lamium amplexicaule), ryegrass, Ital. (Italian ryegrass, Lolium multiflorum), kochia (Kochia scoparia), lambsquarters (Chenopodium album), oilseed rape (Brassica napus), pigweed (Amaranthus retroflexus), chamomile (scentless chamomile, Matricaria inodora), speedwell (bird's-eye speedwell, Veronica persica), barley, spring (spring barley, Hordeum vulgare), wheat, spring (spring wheat, Triticum aestivum), buckwheat, wild (wild buckwheat, Polygonum convolvulus), wild mustard (Sinapis arvensis), oat, wild (wild oat, Avena fatua), radish, wild (wild radish, Raphanus raphanistrum), […]), barley, winter (winter barley, Hordeum vulgare), and wheat, winter (winter wheat, Triticum aestivum) were planted into a silt loam soil and treated preemergence with test chemicals formulated in a non-phytotoxic solvent mixture which included a surfactant. At the same time, these species were planted in pots containing Sunshine Redi-Earth® planting medium comprising spaghnum peat moss, vermiculite, starter nutrients and dolomitic limestone and treated with postemergence applications of the test chemicals formulated in the same manner. Plants ranged in height from 2 to 18 cm (1- to 4-leaf stage). Treated plants and controls were maintained in a controlled growth environment for 14 to 21 d after which time all species were compared to controls and visually evaluated. […] A dash (-) response means no test result.

lambsquarters = test: Test C preemergence; assay type: in vivo, Chenopodium album; conditions: for Plant response rating (scale of 0 to 100 where 0 is no effect and 100 is complete control): Lambsquarters, preemergence; for Lambsquarters plant response rating (0 to 100): Preemergence, visual rating after 13 to 15 d
Excerpt: as §1

bromegrass, down = test: Test D preemergence; assay type: in vivo, Bromus tectorum; conditions: for Plant response rating: Bromegrass, Down: scale 0 to 100
Excerpt: as §2

buckwheat, wild = test: Test D preemergence; assay type: in vivo, Polygonum convolvulus; conditions: for Plant response rating: Buckwheat, Wild: scale 0 to 100
Excerpt: as §2

canarygrass = test: Test D preemergence; assay type: in vivo, Phalaris minor; conditions: for Plant response rating: Canarygrass: scale 0 to 100
Excerpt: as §2

oilseed rape [2] = test: Test C preemergence; assay type: in vivo, Brassica napus; conditions: for Plant response rating (scale of 0 to 100 where 0 is no effect and 100 is complete control): Oilseed Rape, preemergence; for Oilseed Rape plant response rating (0 to 100): Preemergence, visual rating after 13 to 15 d
Excerpt: as §1

galium = test: Test D preemergence; assay type: in vivo, Galium aparine; conditions: for Plant response rating: Galium: scale 0 to 100
Excerpt: as §2

radish, wild = test: Test D preemergence; assay type: in vivo, Raphanus raphanistrum; conditions: for Plant response rating: Radish, Wild: scale 0 to 100
Excerpt: as §2

oat, wild = test: Test D postemergence; assay type: in vivo, Avena fatua; conditions: scale 0 to 100
Excerpt: as §2

speedwell = test: Test D postemergence; assay type: in vivo, Veronica persica; conditions: scale 0 to 100
Excerpt: as §2

barley, winter = test: Test D postemergence; assay type: in vivo, Hordeum vulgare; conditions: scale 0 to 100
Excerpt: as §2

barley, spring = test: Test D postemergence; assay type: in vivo, Hordeum vulgare; conditions: scale 0 to 100
Excerpt: as §2

[3] = 16 g ai/ha, 0 is no effect, 100 is complete control

Fc1ccc(-c2nc(OCC(F)(F)F)n(Cc3ccnc(C(F)(F)F)c3)n2)cc1 [Compound 30]
Plant response rating (scale of 0 to 100 where 0 is no effect and 100 is complete control) (corn; 125 g ai/ha): 30 | Plant response rating (scale of 0 to 100 where 0 is no effect and 100 is complete control) (corn; 250 g ai/ha): 35 | Corn plant response rating (0 to 100) (corn; 31 g ai/ha): 5 | Corn plant response rating (0 to 100) (corn; 62 g ai/ha): 15 | Plant response rating (0 to 100), Oilseed Rape (oilseed rape [1]; [3]): 10 | Plant response rating: Oilseed Rape (oilseed rape [1]; 62 g ai/ha): 35 | Plant response rating: Oilseed Rape (oilseed rape [1]; 125 g ai/ha): 55 | Plant response rating (scale of 0 to 100 where 0 is no effect and 100 is complete control) (lambsquarters; 125 g ai/ha): 95 | Plant response rating (scale of 0 to 100 where 0 is no effect and 100 is complete control) (lambsquarters; 250 g ai/ha): 98 | Lambsquarters plant response rating (0 to 100) (lambsquarters; 31 g ai/ha): 98 | Lambsquarters plant response rating (0 to 100) (lambsquarters; 62 g ai/ha): 98 | Plant response rating (0 to 100), Bromegrass, Down (bromegrass, down; [3]): 35 | Plant response rating: Bromegrass, Down (bromegrass, down; 31 g ai/ha): 40 | Plant response rating: Bromegrass, Down (bromegrass, down; 62 g ai/ha): 55 | Plant response rating: Bromegrass, Down (bromegrass, down; 125 g ai/ha): 70 | Plant response rating (0 to 100), Buckwheat, Wild (buckwheat, wild; [3]): 70 | Plant response rating: Buckwheat, Wild (buckwheat, wild; 31 g ai/ha): 70 | Plant response rating: Buckwheat, Wild (buckwheat, wild; 62 g ai/ha): 85 | Plant response rating: Buckwheat, Wild (buckwheat, wild; 125 g ai/ha): 85 | Plant response rating (0 to 100), Canarygrass (canarygrass; [3]): 50 | Plant response rating: Canarygrass (canarygrass; 31 g ai/ha): 70 | Plant response rating: Canarygrass (canarygrass; 62 g ai/ha): 100 | Plant response rating: Canarygrass (canarygrass; 125 g ai/ha): 100 | Plant response rating (scale of 0 to 100 where 0 is no effect and 100 is complete control) (oilseed rape [2]; 125 g ai/ha): 100 | Plant response rating (scale of 0 to 100 where 0 is no effect and 100 is complete control) (oilseed rape [2]; 250 g ai/ha): 100 | Oilseed Rape plant response rating (0 to 100) (oilseed rape [2]; 31 g ai/ha): 80 | Oilseed Rape plant response rating (0 to 100) (oilseed rape [2]; 62 g ai/ha): 80 | Plant response rating (0 to 100), Galium (galium; [3]): 70 | Plant response rating: Galium (galium; 62 g ai/ha): 80 | Plant response rating: Galium (galium; 125 g ai/ha): 85 | Plant response rating (0 to 100), Radish, Wild (radish, wild; [3]): 65 | Plant response rating: Radish, Wild (radish, wild; 62 g ai/ha): 95 | Plant response rating: Radish, Wild (radish, wild; 125 g ai/ha): 100 | Plant response rating: Oat, Wild (oat, wild; 16 g ai/ha): 40 | Plant response rating: Oat, Wild (oat, wild; 31 g ai/ha): 40 | Plant response rating: Oat, Wild (oat, wild; 62 g ai/ha): 65 | Plant response rating: Oat, Wild (oat, wild; 125 g ai/ha): 75 | Plant response rating: Speedwell (speedwell; 16 g ai/ha): 100 | Plant response rating: Speedwell (speedwell; 31 g ai/ha): 100 | Plant response rating: Speedwell (speedwell; 62 g ai/ha): 100 | Plant response rating: Speedwell (speedwell; 125 g ai/ha): 100 | Plant response rating: Barley, Winter (barley, winter; 16 g ai/ha): 20 | Plant response rating: Barley, Winter (barley, winter; 31 g ai/ha): 25 | Plant response rating: Barley, Winter (barley, winter; 62 g ai/ha): 30 | Plant response rating: Barley, Winter (barley, winter; 125 g ai/ha): 40 | Plant response rating: Barley, Spring (barley, spring; 16 g ai/ha): 30 | Plant response rating: Barley, Spring (barley, spring; 31 g ai/ha): 40 | Plant response rating: Barley, Spring (barley, spring; 62 g ai/ha): 35 | Plant response rating: Barley, Spring (barley, spring; 125 g ai/ha): 45
